Data: PubChem BioAssay (NCI)
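Compound exposure: 48 hours, 5 concentrations, 96-well plates. GI50 = concentration required for 50% inhibition of growth. The concentration for full growth arrest is given as TGI.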

Key:
Experiment in all cases: inhibition of tumour cell growth, NCI panel, 48 h
HT29 colon = system: HT29 colon
MOLT-4 leukemia = system: MOLT-4 leukemia
SNB-75 CNS = system: SNB-75 CNS
TK-10 renal = system: TK-10 renal
U251 CNS = system: U251 CNS
RXF 393 renal = system: RXF 393 renal
LOX IMVI melanoma = system: LOX IMVI melanoma
COLO 205 colon = system: COLO 205 colon
HS 578T breast = system: HS 578T breast
SR leukemia = system: SR leukemia

Row | SMILES | GI50 (HT29 colon) [µM] | TGI (HT29 colon) [µM] | GI50 (MOLT-4 leukemia) [µM] | TGI (MOLT-4 leukemia) [µM] | GI50 (SNB-75 CNS) [µM] | TGI (SNB-75 CNS) [µM] | GI50 (TK-10 renal) [µM] | TGI (TK-10 renal) [µM] | GI50 (U251 CNS) [µM] | TGI (U251 CNS) [µM] | GI50 (RXF 393 renal) [µM] | TGI (RXF 393 renal) [µM] | GI50 (LOX IMVI melanoma) [µM] | TGI (LOX IMVI melanoma) [µM] | GI50 (COLO 205 colon) [µM] | TGI (COLO 205 colon) [µM] | GI50 (HS 578T breast) [µM] | TGI (HS 578T breast) [µM] | TGI (SR leukemia) [µM] | GI50 (SR leukemia) [µM]
1 | Clc1nc(Cl)c2ncn(Cc3ccc(COc4cccc(OCc5ccc(Cn6cnc7c(Cl)nc(Cl)nc76)cc5)c4)cc3)c2n1 | > 100 | > 100 | 8.6 | > 100 | 8.39 | > 100 | 27 | > 100 | 19.8 | > 100 | > 100 | > 100 | 2.47 | 12.7 | > 100 | > 100 | 54.1 | > 100 | – | –
2 | COc1cc([C@@H]2c3cc4c(cc3[C@@H](NC(=O)c3ccccc3)C3COC(=O)[C@@H]32)OCO4)cc(OC)c1O (some centres undefined) | – | 22 | – | 9.18 | – | 38 | – | 92.5 | – | 13.5 | – | 74.4 | – | 25.1 | – | 92.8 | – | – | – | –
3 | CC1=C(O)C(=O)C2C(=O)C1C(C)C2c1ccc(Cl)cc1 (centres undefined) | – | > 100 | – | > 100 | – | > 100 | – | > 100 | – | > 100 | – | > 100 | – | > 100 | – | > 100 | – | – | > 100 | –
4 | C[C@@H]1COCCN1c1cc(C2(S(C)(=N)=O)CC2)nc(-c2ccnc3[nH]ccc23)n1 (some centres undefined) | 6.95 | > 100 | 2.35 | 49.4 | 1.64 | 12.8 | 8.51 | 51 | 5.46 | 63.9 | 1.46 | 6.76 | 1.63 | 12.7 | 11.7 | 29 | 2.77 | 22.1 | – | –
5 | NNC(=O)CCC(=O)NC1C2CC3CC(C2)CC1C3 (centres undefined) | – | > 100 | – | > 100 | – | > 100 | – | > 100 | – | > 100 | – | > 100 | – | > 100 | – | > 100 | – | – | – | –
6 | CCCCCCCCCCCC[n+]1ccc(CCCCCCCCC)cc1 | – | – | – | – | 1.26 | 2.57 | 1.35 | 2.76 | – | – | 1.36 | 2.86 | – | – | – | – | – | – | 4.55 | 1.47
7 | N#CC(C(=O)C(=O)NCCCNC(=O)C(=O)C(C#N)c1ccccc1)c1ccccc1 (centres undefined) | – | > 100 | – | > 100 | – | > 100 | – | > 100 | – | > 100 | – | > 100 | – | > 100 | – | > 100 | – | – | > 100 | –
8 | COc1ccc(NC(=O)c2cc(OC)c(OC)c(OC)c2)cc1 | – | > 100 | – | > 100 | – | > 100 | – | > 100 | – | > 100 | – | 94.3 | – | > 100 | – | > 71.9 | – | – | – | –
9 | COc1cccc(C(=O)C2C(=O)N(C)CCc3ccccc32)c1OC (centres undefined) | – | > 100 | – | > 100 | – | > 100 | – | > 100 | – | > 100 | – | > 100 | – | > 100 | – | > 100 | – | – | – | –
10 | CSc1nc2c(nc(N)n2C2OCC(O)C(O)C2O)c(=O)n1C (centres undefined) | – | > 100 | – | > 100 | – | > 100 | – | > 100 | – | > 100 | – | > 100 | – | > 100 | – | > 100 | – | – | > 100 | –
11 | CC(=O)Oc1ccc(O)c(O)c1C/C=C(\C)CC/C=C(\C)CC/C=C(\C)CCC=C(C)C | – | 1.18 | – | – | – | 1.92 | – | 2.6 | – | 1.28 | – | 2.47 | – | 0.694 | – | 0.341 | – | – | – | –
12 | CN(C)CCOc1ccc2c(c1)C/C(=C/c1ncc([N+](=O)[O-])n1C)C2=O | – | 4.92 | – | > 22.6 | – | 7.54 | – | 10.9 | – | 20.5 | – | 3.69 | – | 14.4 | – | 3.33 | – | > 49.6 | – | –
13 | NC(C(=O)[O-])C(=O)[O-].NC1CCCCC1N.[Pt+4] | 2.65 | > 100 | 6.42 | > 100 | > 100 | > 100 | 3.1 | 8.61 | 4.63 | > 100 | – | – | 2.85 | > 100 | 2.84 | > 100 | > 100 | > 100 | – | –
14 | COc1cc(CNc2ccc(C(C)C)cc2)cc(OC)c1OC | – | 33.3 | – | 73 | – | 70.5 | – | > 100 | – | 29.7 | – | 14.1 | – | 29.9 | – | – | – | – | – | –
15 | OCCCCCCOc1ccc(-c2cc(-c3ccccn3)nc(-c3ccccn3)c2)cc1 | – | 11.8 | – | 2.53 | – | 3.11 | – | 6.66 | – | 1.6 | – | 0.853 | – | 1.02 | – | 8.09 | – | 4.61 | – | –
16 | COc1ccc(O)c(C#N)c1C#N | – | > 100 | – | > 100 | – | > 100 | – | > 100 | – | > 100 | – | > 100 | – | > 100 | – | > 100 | – | – | – | –
17 | CC(C)CC1=[N+]=C(NC#N)N=C(CCC(=O)Nc2ccccc2[N+](=O)[O-])C1 | – | > 100 | – | > 100 | – | > 100 | – | > 100 | – | > 100 | – | > 100 | – | > 100 | – | > 100 | – | – | > 100 | –
18 | O=C1C2=C(c3ccccc31)C(c1ccccc1)NC(=S)N2 (centres undefined) | – | > 100 | – | > 100 | – | 80 | – | > 100 | – | > 100 | – | – | – | – | – | > 100 | – | – | – | –
19 | COc1nc2nccc-2c2occn12 | – | > 100 | – | > 100 | – | > 100 | – | > 100 | – | > 100 | – | > 100 | – | > 100 | – | > 100 | – | – | – | –
20 | c1cnc2[nH]cc(-c3csc(-c4cn(CCCCN5CCOCC5)c5ccccc45)n3)c2c1 | – | – | 1.82 | 3.67 | 1.19 | 2.54 | 2.77 | 7.24 | – | – | 1.67 | 3.31 | 1.74 | 3.26 | 1.73 | 3.51 | 1.77 | 4.98 | – | –
21 | CC(=O)[O-].CC(=O)[O-].[NH2-].[Pt+2].c1ccc2cnccc2c1 | 24.5 | > 100 | 1.4 | 27.3 | > 100 | > 100 | 15.5 | 90.7 | 6.26 | 20.3 | 0.0522 | 24 | 9.19 | 31.7 | 24.7 | > 100 | 60.4 | > 100 | – | –
